# Data reported in patent publication US7825126B2 (The United States of America as represented by the …, priority 2004, dated 2010).
# Read-outs that look alike come from different tables or passages of the source.
# Experiments:
# [1] = biological target: T1, human A2B adenosine receptor (hA2BAR) (Homo sapiens, UniProt P29275); experiment: Activation of human A2B adenosine receptor at 10 μM; format: cell-based; conditions: CHO cells
# T1 sequence (P29275 1-332): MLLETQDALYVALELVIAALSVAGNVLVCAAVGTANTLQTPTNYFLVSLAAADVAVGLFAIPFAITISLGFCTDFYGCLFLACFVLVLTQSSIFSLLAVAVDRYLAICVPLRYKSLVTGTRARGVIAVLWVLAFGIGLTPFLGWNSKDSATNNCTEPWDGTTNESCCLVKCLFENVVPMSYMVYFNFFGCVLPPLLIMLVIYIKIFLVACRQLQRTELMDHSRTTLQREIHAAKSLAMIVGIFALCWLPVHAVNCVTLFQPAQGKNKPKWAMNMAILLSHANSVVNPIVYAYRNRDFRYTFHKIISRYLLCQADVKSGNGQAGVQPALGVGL
# human A2A receptors = biological target: T2, human A2A receptors (Homo sapiens, UniProt P29274); experiment: Binding at human A2A adenosine receptor ([3H]CGS21680, HEK-293 cell membranes); conditions: [3H]CGS 21680; for Ki: mean ± s.e.m., n = 3-5, read-out: Ki(hA2AAR)
# T2 construct: expressed in transfected cells
# Procedure: (§1) Binding assays at the A1 and A2A receptors. […] Reaction was terminated by filtration with GF/B filters.
# (§2) Statistical analysis Binding and functional parameters were calculated using Prism 5.0 software (GraphPAD, San Diego, Calif., USA). IC50 values obtained from competition curves were converted to Ki values using the Cheng-Prusoff equation.
# [2] = biological target: T3, human A3 adenosine receptor (Homo sapiens, UniProt P0DMS8); experiment: Cyclic AMP accumulation assay (inhibition of forskolin-stimulated cAMP), CHO cells expressing human A3 adenosine receptor; conditions: 10 μM, relative to 10 μM Cl-IB-MECA
# T3 sequence (P0DMS8 1-318): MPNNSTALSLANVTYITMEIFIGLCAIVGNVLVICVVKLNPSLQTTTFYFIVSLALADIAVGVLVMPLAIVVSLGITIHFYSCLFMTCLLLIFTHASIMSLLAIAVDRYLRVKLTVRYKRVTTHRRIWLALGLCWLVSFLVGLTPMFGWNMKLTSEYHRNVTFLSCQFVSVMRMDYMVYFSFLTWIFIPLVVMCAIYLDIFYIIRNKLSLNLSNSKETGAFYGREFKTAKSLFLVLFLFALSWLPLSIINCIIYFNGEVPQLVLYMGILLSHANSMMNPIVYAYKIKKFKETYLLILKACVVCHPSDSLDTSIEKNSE
# Procedure: The cyclic AMP accumulation assay was performed as follows. Intracellular cyclic AMP levels were measured with a competitive protein binding method. […] After centrifugation and resuspension in medium, cells were plated in 24-well plates in 1.0 ml medium. […] The reaction was terminated by removing the supernatant, and cells were lysed upon the addition of 200 μL of 0.1 M ice-cold HCl. The cell lysate was resuspended and stored at −20° C. For determination of cyclic AMP production, protein kinase A (PKA) was incubated with [^3H]cyclic AMP (2 nM) in K2HPO4/EDTA buffer (K2HPO4, 150 mM; EDTA, 10 mM), 20 μL of the cell lysate, and 30 μL 0.1 M HCl or 50 μL of cyclic AMP solution (0-16 pmol/200 μL for standard curve). Bound radioactivity was separated by rapid filtration through Whatman GF/C filters and washed once with cold buffer. Bound radioactivity was measured by liquid scintillation spectrometry.
# Forskolin (10 μM) was used to stimulate cyclic AMP levels.
# human A1 receptors = biological target: T4, human A1 receptors (Homo sapiens, UniProt P30542); experiment: Binding at human A1 adenosine receptor ([3H]R-PIA, CHO cell membranes); conditions: for Ki: mean ± s.e.m., n = 3-5, read-out: Ki(hA1AR)
# T4 construct: expressed in transfected cells
# T4 sequence (P30542 1-326): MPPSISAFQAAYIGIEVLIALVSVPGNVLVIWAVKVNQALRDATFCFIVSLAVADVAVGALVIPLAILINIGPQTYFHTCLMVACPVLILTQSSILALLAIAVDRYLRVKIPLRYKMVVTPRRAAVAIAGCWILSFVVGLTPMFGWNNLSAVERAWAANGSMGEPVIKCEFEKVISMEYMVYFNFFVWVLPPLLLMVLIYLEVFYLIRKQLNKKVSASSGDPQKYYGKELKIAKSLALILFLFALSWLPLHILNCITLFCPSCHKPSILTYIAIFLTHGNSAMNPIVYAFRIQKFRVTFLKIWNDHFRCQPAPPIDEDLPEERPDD
# Procedure: as §1, §2
# [3] = biological target: T3, human A3 adenosine receptor; parameters: expressed in transfected cells; host or cells: CHO cells; conditions: relative to 10 μM Cl-IB-MECA, data from literature (footnotes c, d, e, f); cited from earlier work
# [4] = biological target: T3, human A3 adenosine receptor; experiment: Binding at human A3 adenosine receptor ([125I]I-AB-MECA, CHO cell membranes); parameters: expressed in transfected cells; host or cells: CHO cells; conditions: [125I]I-AB-MECA; mean ± s.e.m., n = 3-5; read-out: Ki(hA3AR)
# Procedure: Striatal and forebrain tissues from Wistar rats were homogenized in ice-cold 50 mM Tris-HCl buffer, pH 7.4, using an electric homogenizer. The homogenate was centrifuged at 20,000 g for 10 min at 4° C., and the pellet was washed in fresh buffer. The final pellet was stored at −80° C. until the binding experiments. The protein concentration was measured using the Bradford assay. […] The mixtures were incubated at 37° C. for 60 min. […] Filters were washed three times with 9 ml ice-cold buffer. Radioactivity was determined in a Beckman 5500B γ-counter. Statistical analysis Binding and functional parameters were calculated using Prism 5.0 software (GraphPAD, San Diego, Calif., USA). IC50 values obtained from competition curves were converted to Ki values using the Cheng-Prusoff equation.
# T2 sequence (P29274 whole entry): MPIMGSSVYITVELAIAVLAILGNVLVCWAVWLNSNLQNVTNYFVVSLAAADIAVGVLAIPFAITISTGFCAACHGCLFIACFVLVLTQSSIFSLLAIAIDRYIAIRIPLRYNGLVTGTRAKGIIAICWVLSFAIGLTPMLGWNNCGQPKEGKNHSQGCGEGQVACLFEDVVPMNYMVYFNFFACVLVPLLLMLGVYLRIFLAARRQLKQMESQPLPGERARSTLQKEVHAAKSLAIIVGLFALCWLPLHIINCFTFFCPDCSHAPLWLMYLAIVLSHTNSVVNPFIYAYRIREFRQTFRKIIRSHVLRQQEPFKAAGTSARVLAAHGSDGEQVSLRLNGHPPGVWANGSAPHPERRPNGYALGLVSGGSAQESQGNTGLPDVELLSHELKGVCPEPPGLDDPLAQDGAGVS
Compound,% Activation (hA2BAR) at 10 μM [1],Ki (human A2A receptors),% displ. at 10 μM (hA2AAR) (human A2A receptors),further results
"CNC(=O)[C@@]12C[C@@H]1[C@@H](n1cnc3c(N[C@@H]4C[C@H]4c4ccccc4)nc(Cl)nc31)[C@H](O)[C@@H]2O (relative stereo) [Compound 33, (1′S,2′R,3′S,4′R,5′S)-(4′-{2-chloro-6-[(trans-2-phenylcyclopropyl)amino]purin-9-yl}-2′,3′-dihydroxybicyclo[3.1.0]hexyl)-N-methylcarboxamide]",48%,4800 ± 200 nM,,
"CNC(=O)[C@@]12C[C@@H]1[C@@H](n1cnc3c(NCc4cccc(I)c4)nc(Cl)nc31)[C@H](O)[C@@H]2O [Compound 4, reference compound]",,1600 ± 400 nM,,% Activation (hA3AR) at 10 μM [2]: 3 ± 2%; Ki (human A1 receptors): 65 ± 17 nM
"OC[C@H]1O[C@@H](n2cnc3c(NCc4cccc(Cl)c4)ncnc32)[C@H](O)[C@@H]1O [Compound 8, reference compound]",,1400 ± 200 nM,,Ki (human A1 receptors): 20 ± 3 nM; % Activation (hA3AR) at 10 μM [3]: 80 ± 3^d %
"CNC(=O)[C@@]12C[C@@H]1[C@H](n1cnc3c(NC)nc(N)nc31)[C@H](O)[C@@H]2O [Compound 15, (1′S,2′R,3′S,4′S,5′S)-4′-[6-Methylamino-2-amino-purin-9-yl]-2′,3′-dihydroxy-bicyclo[3.1.0]hexane-1′-carboxylic acid methylamide]",,,17%,
CNC(=O)[C@@]12C[C@@H]1[C@@H](n1cnc3c(NCc4cccc(I)c4)ncnc31)[C@H](O)[C@@H]2O [Compound 16],,6200 ± 100 nM,,Ki (human A1 receptors): 700 ± 270 nM; % Activation (hA3AR) at 10 μM [3]: 100^e %
"CNC(=O)C12CC1C(n1cnc3c(NCc4cccc(F)c4)nc(Cl)nc31)C(O)C2O (stereo not drawn) [Compound 19, (1′S,2′R,3′S,4′S,5′S)-4′-[6-(3-Fluorobenzylamino)-2-chloro-purin-9-yl]-2′,3′-dihydroxy-bicyclo[3.1.0]hexane-1′-carboxylic acid methylamide]",28%,5100 ± 200 nM,,
"CNC(=O)[C@@]12C[C@@H]1[C@H](n1cnc3c(NCc4cc(Cl)ccc4Cl)nc(Cl)nc31)[C@H](O)[C@@H]2O [Compound 20, (1′S,2′R,3′S,4′S,5′S)-4′-[6-(2,5-Dichlorobenzylamino)-2-chloro-purin-9-yl]-2′,3′-dihydroxy-bicyclo[3.1.0]hexane-1′-carboxylic acid methyl amide]",32%,1300 ± 100 nM,,
"CNC(=O)C12CC1C(n1cnc3c(NCc4cc(I)ccc4Cl)nc(Cl)nc31)C(O)C2O (stereo not drawn) [Compound 21, (1′S,2′R,3′S,4′S,5′S)-4′-[6-(2-Chloro-5-iodo-benzylamino)-2-chloro-purin-9-yl]-2′,3′-dihydroxy-bicyclo[3.1.0]hexane-1′-carboxylic acid methylamide]",58%,480 ± 20 nM,,
"CNC(=O)C12CC1C(n1cnc3c(NCc4cc(Cl)ccc4OC)nc(Cl)nc31)C(O)C2O (stereo not drawn) [Compound 22, (1′S,2′R,3′S,4′S,5′S)-4′-[6-(5-Chloro-2-methoxy-benzylamino)-2-chloro-purin-9-yl]-2′,3′-dihydroxy-bicyclo[3.1.0]hexane-1′-carboxylic acid methylamide]",37%,1200 ± 100 nM,,
"CNC(=O)C12CC1C(n1cnc3c(NCc4cc(Cl)ccc4OCC(N)=O)nc(Cl)nc31)C(O)C2O (stereo not drawn) [Compound 23, (1′S,2′R,3′S,4′S,5′S)-4′-[6-(5-Chloro-2-(aminocarbonylmethyloxy)-benzylamino)-2-chloro-purin-9-yl]-2′,3′-dihydroxy-bicyclo[3.1.0]hexane-1′-carboxylic acid methylamide]",,800 ± 70 nM,,
"CNC(=O)C12CC1C(n1cnc3c(NCc4cc(I)ccc4OC)nc(Cl)nc31)C(O)C2O (stereo not drawn) [Compound 25, (1′S,2′R,3′S,4′S,5′S)-4′-[6-(5-Iodo-2-methoxy-benzylamino)-2-chloro-purin-9-yl]-2′,3′-dihydroxy-bicyclo[3.1.0]hexane-1′-carboxylic acid methylamide]",46%,430 ± 30 nM,,
"CNC(=O)C12CC1C(n1cnc3c(NCc4ccccc4C)nc(Cl)nc31)C(O)C2O (stereo not drawn) [Compound 27, (1′S,2′R,3′S,4′S,5′S)-4′-[6-(2-Methyl-benzylamino)-2-chloro-purin-9-yl]-2′,3′-dihydroxy-bicyclo[3.1.0]hexane-1′-carboxylic acid methylamide]",24%,3800 ± 200 nM,,
"CNC(=O)C12CC1C(n1cnc3c(NCc4cccc(C)c4)nc(Cl)nc31)C(O)C2O (stereo not drawn) [Compound 28, (1′S,2′R,3′S,4′S,5′S)-4′-[6-(3-Methyl-benzylamino)-2-chloro-purin-9-yl]-2′,3′-dihydroxy-bicyclo[3.1.0]hexane-1′-carboxylic acid methylamide]",46%,3700 ± 600 nM,,
"CNC(=O)C12CC1C(n1cnc3c(NCc4cccc(C#CCO)c4)nc(Cl)nc31)C(O)C2O (stereo not drawn) [Compound 29, (1′S,2′R,3′S,4′S,5′S)-4′-[6-(3-(3-Hydroxypropynyl)-benzylamino)-2-chloro-purin-9-yl]-2′,3′-dihydroxy-bicyclo[3.1.0]hexane-1′-carboxylic acid methylamide]",28%,,56%,
"CNC(=O)C12CC1C(n1cnc3c(NCc4cc(C#CCO)ccc4Cl)nc(Cl)nc31)C(O)C2O (stereo not drawn) [Compound 30, (1′S,2′R,3′S,4′S,5′S)-4′-[6-(2-Chloro-5-(3-hydroxypropynyl)-benzylamino)-2-chloro-purin-9-yl]-2′,3′-dihydroxy-bicyclo[3.1.0]hexane-1′-carboxylic acid methylamide]",6%,,12%,Ki [4]: 217 ± 27 nM; % Activation (hA3AR) at 10 μM [2]: 108 ± 5%; % displ. at 10 μM (hA1AR) (human A1 receptors; 10 μM): 14%
"CNC(=O)C12CC1C(n1cnc3c(NCc4ccc(N)cc4)nc(Cl)nc31)C(O)C2O (stereo not drawn) [Compound 31a, (1′S,2′R,3′S,4′S,5′S)-4′-[6-(4-Amino-benzylamino)-2-chloro-purin-9-yl]-2′,3′-dihydroxy-bicyclo[3.1.0]hexane-1′-carboxylic acid methylamide]",22%,,28%,
CNC(=O)[C@@]12C[C@@H]1[C@@H](n1cnc3c(NCc4ccc(N)c(I)c4)nc(Cl)nc31)[C@H](O)[C@@H]2O [Compound 31b],,1100 ± 100 nM,,
"CNC(=O)C12CC1C(n1cnc3c(NCc4cccnc4)nc(Cl)nc31)C(O)C2O (stereo not drawn) [Compound 32, (1′S,2′R,3′S,4′S,5′S)-4′-[6-(3-Pyridylmethylamino)-2-chloro-purin-9-yl]-2′,3′-dihydroxy-bicyclo[3.1.0]hexane-1′-carboxylic acid methylamide]",4%,,33%,
"CCOC(=O)[C@@]12C[C@@H]1[C@H](n1cnc3c(NCc4cccc(Cl)c4)nc(I)nc31)[C@H](O)[C@@H]2O [Compound 35, (1′S,2′R,3′S,4′S,5′S)-4′-[6-(3-Chlorobenzylamino)-2-iodo-purin-9-yl]-2′,3′-dihydroxy-bicyclo[3.1.0]hexane-1′-carboxylic acid ethyl ester]",,,43%,
CNC(=O)C12CC1C(n1cnc3c(NCc4cccc(Cl)c4)nc(SC)nc31)C(O)C2O (stereo not drawn) [Compound 36],,,52%,% Activation (hA3AR) at 10 μM [2]: 100 ± 4%
